Assay results published in paper PMC5444710, “Enhancement of radiosensitivity by the novel anticancer quinolone derivative vosaroxin in preclinical glioblastoma models” (Oncotarget, 2017).

Legend:
[1] = tested on: luciferase-transfected U251 cells; assay: Orthotopic intra-brain model (DFS, OS)
[2] = tested on: U251 xenografts; assay: Subcutaneous xenograft model: tumor weight and time to progression; assay type: in vivo, female CD1-nu/nu mice; conditions: for HR (95% CI) for tumor progression: U251
Method: (§1) Female CD1-nu/nu mice, at 6 weeks of age, were purchased from Charles River (Milan, Italy) under the guidelines established by our institution (University of L’Aquila, Medical School and Science and Technology School Board Regulations, complying with Italian government regulation n.116, January 27, 1992, for the use of laboratory animals). All mice received subcutaneous flank injections (2 each) of 1 × 10^6 U251, U87MG, and T98G cells representing models for MGMT-negative and MGMT-positive cells. Tumor growth was assessed biweekly by measuring tumor diameters with a Vernier caliper (length × width). Tumor weight was calculated according to the formula tumor weight (mg) = tumor volume (mm^3) = d2 × D/2, where d and D are the shortest and longest diameters, respectively. The effects of the treatments were assessed as previously described. At about 10 days after the tumor injection, 30 mice with tumor volumes of 0.5–0.8 cm^3 were randomly divided into 6 groups (5 mice per group with 2 tumors each): (1) control (vehicle); (2) vosaroxin (10 mg/kg every 5 days for 5 weeks intravenous [IV] injection into tail vein; (3) radiotherapy (RT; 4 Gy delivered in a single fraction); (4) vosaroxin in combination with RT; (5) temozolomide (16 mg/kg 5 consecutive days) and (6) temozolomide in combination with RT. Anesthetized tumor-bearing mice received focal irradiation. Irradiation was delivered using an x-ray linear accelerator at a dose rate of 200 cGy/min at room temperature. All mice were shielded with a specially designed lead apparatus to allow irradiation to the right hind limb. At the end of the study (35 days after the start of treatments), animals were sacrificed by carbon dioxide inhalation and tumors were then removed surgically. Half of the tumor was directly frozen in liquid nitrogen for protein analysis and the other half was fixed in paraformaldehyde overnight for immunohistochemical analyses.
(§2) The following parameters were used to quantify the antitumor effects of different treatments as previously described: tumor volume, measured throughout the experiment; tumor weight, measured at the end of the experiment; tumor progression, defined as an increase of greater than 50% of tumor volume with respect to baseline; and time to progression (TTP), defined as the time until tumor progression was observed from baseline. Tumor size was measured with calipers and the TTP of a single tumor was calculated. TTP data were used to generate Kaplan-Meier curves for progression. This method of analysis was described previously, and may reduce both inter-subject variability resulting from differences in engraftment efficacy as well as intra-subject variability in response.
(§3) In vivo drug combination studies were evaluated using CalcuSyn. For CI calculations of dual administration, the values of % cell kill (%CK) for a fixed tumor volume were determined by the log CK (LCK). LCK was calculated as LCK = (T − C) / (3.32 × Td), where Td represented the mean control group doubling time required to reach a fixed tumor volume, expressed in days. T and C were the mean times in days required to reach the same fixed tumor volume in the treated group and the control group, respectively. CK was calculated as %CK = [1 − (1 − 10LCK)] × 100. Tumor growth delay (TGD) was calculated as %TGD = [(T − C) / C] × 100, where T and C were the same values as those reported by Bruzzese et al..

[3] = tested on: U87MG xenografts; assay: as above; assay type: in vivo, female CD1-nu/nu mice; conditions: for HR (95% CI) for tumor progression: U87MG
Method: as §1, §2, §3

[4] = tested on: BT12M patient-derived glioblastoma stem cell line; assay: Inhibition of proliferation (cell viability); assay type: cell-based; conditions: Homo sapiens
Method: (§4) Thirteen human glioma cell lines (U251, U373, SNB19, U118, U138, U87MG, A172, LN229, LN19, SW1783, T98G, SF-268, and D54) were cultured at 37°C in 5% CO2 and were maintained in Dulbecco’s modified Eagle medium (DMEM) containing 10% (v/v) fetal bovine serum, 4 mM glutamine, 100 IU/mL penicillin, 100 μg/mL streptomycin, and 1% nonessential amino acid (Invitrogen Life Technologies, Inc., Rockville, MD, USA). To minimize the risk of working with misidentified and/or contaminated cell lines, the cells used in studies reported here were stocked at very low passages after initial receipt from the vendor to reduce the possibility of contaminated cell line stocks and used at < 20 subcultures. Periodically, DNA profiling by GenePrint® 10 System (Promega Corporation, Madison, WI, USA) was carried out to authenticate cell cultures. Luciferase-transfected U251 cells were kindly provided by Jari E. Heikkila, department of Biochemistry and Pharmacy, Abo Akademi University, Turku, Finland. […] These non-commercially available, patient-derived cells were analyzed using short tandem repeat profiles. The expression of MGMT, p53, and PTEN was detected in western blots with antibodies from Santa Cruz against MGMT (sc166528), wt p53 (sc-100), total p53 (sc-126), and PTEN (sc-7974).
(§5) Cells were seeded at a density of 2 × 10^4 cells/mL in 24-well plates. […] At the conclusion of the treatment period, cells were trypsinized and resuspended in 1.0 mL of saline; viable cells were counted using the NucleoCounter™ NC-100 (Chemotec, Cydevang, Denmark). […] IC50 values were calculated using GraFit (Erithacus Software Limited, Staines, UK).

[5] = tested on: CSCs-7 patient-derived glioblastoma stem cell line; assay: Inhibition of proliferation (cell viability); assay type: cell-based; conditions: Homo sapiens
Method: as §4, §5

[6] = tested on: CSCs-5 patient-derived glioblastoma stem cell line; assay: Inhibition of proliferation (cell viability); assay type: cell-based; conditions: Homo sapiens
Method: as §4, §5

## CN[C@H]1CN(c2ccc3c(=O)c(C(=O)O)cn(-c4nccs4)c3n2)C[C@@H]1OC [vosaroxin]
[1]; VSR vs TMZ + RT
  Disease-free Survival HR (95% CI): 1.2 (0.4–3.2)
  Overall Survival HR (95% CI): 1.5 (0.5–3.0)
[1]; VSR vs VSR + RT
  Disease-free Survival HR (95% CI): 2.4 (1.1–8.8)
  Overall Survival HR (95% CI): 4.5 (2.2–22.5)
[1]; orthotopic U251-luciferase, treated for 35 days starting 5 days after cell injection
  mean time of recurrence (DFS) ± SE: 70.5 ± 7.3 days
[2]; U251 xenografts, day 35, VSR 10 mg/kg q 5 d for 5 wk IV, TMZ 16 mg/kg 5 consecutive days, RT single 4 Gy
  final tumor weight reduction compared with vehicle controls: 42%
[2]; VSR vs TMZ + RT
  HR (95% CI) for tumor progression: 4.2 (1.4–12.5)
[2]; VSR vs TMZ
  HR (95% CI) for tumor progression: 0.6 (0.3–1.6)
[2]; VSR vs VSR + RT
  HR (95% CI) for tumor progression: 4.0 (1.3–12.1)
[3]; U87MG xenografts, day 35, VSR 10 mg/kg q 5 d for 5 wk IV, TMZ 16 mg/kg 5 consecutive days, RT single 4 Gy
  final tumor weight reduction compared with vehicle controls: 44%
[3]; VSR vs TMZ + RT
  HR (95% CI) for tumor progression: 0.8 (0.3–2.0)
[3]; VSR vs TMZ
  HR (95% CI) for tumor progression: 0.6 (0.2–1.5)
[3]; VSR vs VSR + RT
  HR (95% CI) for tumor progression: 4.3 (1.2–15.6)
[4]
  IC50: 44.3 ± 5.5 nM
[5]
  IC50: 125 ± 15.4 nM
[6]
  IC50: 85.4 ± 7.8 nM
